Each structure is given as a SMILES string. Where a name gives a salt, the structure may show the parent alone.

For one assay, the target named is LSD1 (Homo sapiens, UniProt O60341). The experiment in a line: Biochemical assay for LSD1 activity (LSD1 demethylase TR-FRET). Particulars: Table 5; biotinylated H3K4me1 peptide, 50 minutes at room temperature, TR-FRET; read-out: LSD1_Pep_TR-FRET_1.0 (IC50 T50).
For the molecule `CCS(=O)(=O)CCN1CCC(CNC2CC2/C=C/c2ccccc2)CC1` (stereo not shown) [Compound 113], the IC50 is < 0.1 µM.
In the case of `F/C(=C\c1ccccc1)C1CC1NCC1CCNCC1` (racemic) [Compound 108, Racemic 2-((Z)-1-fluoro-2-phenylvinyl)-N-(piperidin-4-ylmethyl)cyclopropanamine Dihydrochloride], the IC50 fell in the range of 0.1 to 1 µM.

The assay is the same for the next values; noted with them: Table 6; biotinylated H3K4me1 peptide, 50 minutes at room temperature, TR-FRET; read-out: LSD1_Pep_TR-FRET_1.0 (IC50 T50).
Turning to `CC/C(=C\c1ccccc1)[C@@H]1C[C@H]1NCC1CCN(Cc2ccc(C(=O)OC(C)(C)C)cc2)CC1` (racemic) [Compound 127], the IC50 fell in the range of 0.1 to 1 µM.
On the same count and under the same terms, the same measure for `C/C(=C\c1ccccc1)[C@@H]1C[C@H]1NC1CCN(CCc2ccc(C(=O)O)cc2)CC1` (racemic) [Compound 206, 4-(2-(4-(((trans)-2-((E)-1-phenylprop-1-en-2-yl)cyclopropyl)amino)piperidin-1-yl)ethyl)benzoic Acid Dihydrochloride]: 0.1 to 1 µM; for `C/C(=C\c1ccccc1)[C@@H]1C[C@H]1N[C@H]1CC[C@H](N(C)C)CC1` (single isomer, unassigned) [Compound 138, (trans)-N^1,N^1-dimethyl-N^4-((trans)-2-((E)-1-phenylprop-1-en-2-yl)cyclopropyl)cyclohexane-1,4-diamine]: < 0.1 µM; for `C/C(=C\c1ccccc1)[C@@H]1C[C@H]1NC1CCN(CCC(=O)N(C)C)CC1` (racemic) [Compound 198, N,N-dimethyl-3-(4-(((trans)-2-((E)-1-phenylprop-1-en-2-yl)cyclopropyl)amino)piperidin-1-yl)propanamide Dihydrochloride]: < 0.1 µM.
Same read-out and setting: the same measure for `CC/C(=C\c1ccccc1)[C@@H]1C[C@H]1N[C@H]1CC[C@H](N(C)CCC(=O)O)CC1` (racemic) [Compound 212, 3-(methyl((trans)-4-(((trans)-2-((E)-1-phenylbut-1-en-2-yl)cyclopropyl)amino)cyclohexyl)amino)propanoic Acid Dihydrochloride]: < 0.1 µM; for `C/C(=C\c1ccccc1)[C@@H]1C[C@H]1N[C@H]1CC[C@H](NCCC(N)=O)CC1` (single isomer, unassigned) [Compound 151, 3-(((trans)-4-(((trans)-2-((E)-1-phenylprop-1-en-2-yl)cyclopropyl)amino)cyclohexyl)amino)propanamide bis(trifluoroacetic acid) salt]: < 0.1 µM.
On to `CCC1(NC2CCNCC2)CC1/C(C)=C/c1ccccc1` (stereo not shown) [Compound 174, bis(trifluoroacetic Acid) Salt], for which the IC50 is < 0.1 µM.
As to `COCCN[C@H]1CC[C@@H](N[C@@H]2C[C@H]2/C(C)=C/c2ccccc2)CC1` (single isomer, unassigned) [Compound 144, (cis)-N1-(2-methoxyethyl)-N4-((trans)-2-((E)-1-phenylprop-1-en-2-yl)cyclopropyl)cyclohexane-1,4-diamine bis(trifluoroacetic acid) salt], the IC50 was < 0.1 µM.
On the same count and under the same terms, the value for `CCC1(NCC2CCNCC2)CC1/C(C)=C/c1ccccc1` (stereo not shown) [Compound 173, 1-ethyl-2-((E)-1-phenylprop-1-en-2-yl)-N-(piperidin-4-ylmethyl)cyclopropanamine Dihydrochloride] was < 0.1 µM; that for `CC/C(=C\c1ccccc1)[C@@H]1C[C@H]1N[C@H]1CC[C@@H](NCc2ccc(C(=O)O)cc2)CC1` (racemic) [Compound 176, 4-((((trans)-4-(((trans)-2-((E)-1-phenylbut-1-en-2-yl)cyclopropyl)amino)cyclohexyl)amino)methyl)benzoic Acid Dihydrochloride] was < 0.1 µM; that for `CC/C(=C\c1ccccc1)[C@@H]1C[C@H]1NC1CCN(Cc2ccc(C(=O)O)cc2)CC1` (racemic) [Compound 128, 4-((4-(((trans)-2-((E)-1-phenylbut-1-en-2-yl)cyclopropyl)amino)piperidin-1-yl)methyl)benzoic acid bis-trifluoroacetic acid salt] was < 0.1 µM.
The same measure, in the same setting: the value for `C/C(=C\c1ccccc1)[C@@H]1C[C@H]1N[C@H]1CC[C@H](NCCC#N)CC1` (single isomer, unassigned) [Compound 155, 3-(((trans)-4-(((trans)-2-((E)-1-phenylprop-1-en-2-yl)cyclopropyl)amino)cyclohexyl)amino)propanenitrile bis(trifluoroacetic acid) salt] was < 0.1 µM; that for `COCC/C(=C\c1ccccc1)[C@@H]1C[C@H]1N[C@H]1CC[C@H](NCC(C)(C)C(=O)O)CC1` (racemic) [Compound 184, 3-(((trans)-4-(((trans)-2-((E)-4-methoxy-1-phenylbut-1-en-2-yl)cyclopropyl)amino)cyclohexyl)amino)-2,2-dimethylpropanoic Acid bis(trifluoroacetic Acid) Salt] was < 0.1 µM; that for `C/C(=C\c1ccccc1)[C@@H]1C[C@H]1NC1CCN(Cc2ccc(C(=O)O)nc2)CC1` (racemic) [Compound 200, 5-((4-(((trans)-2-((E)-1-phenylprop-1-en-2-yl)cyclopropyl)amino)piperidin-1-yl)methyl)picolinic Acid Dihydrochloride] was < 0.1 µM.

Staying with this assay, now noted: Table 7; biotinylated H3K4me1 peptide, 50 minutes at room temperature, TR-FRET; read-out: LSD1_Pep_TR-FRET_1.0 (IC50 T50).
In the case of `CC/C(=C\c1ccccc1)[C@@H]1C[C@H]1NC[C@H]1CC[C@H](NCC(C)(C)C(=O)O)CC1` (racemic) [Compound 232], the IC50 is 0.1 to 1 µM.
As for `CC/C(=C\c1ccccc1)[C@@H]1C[C@H]1NC1CC2(CCN(CC(C)(C)C(=O)O)CC2)C1` (racemic) [Compound 228, 2,2-dimethyl-3-(2-(((trans)-2-(E)-1-phenylbut-1-en-2-yl)cyclopropyl)amino)-7-azaspiro[3.5]nonan-7-yl)propanoic Acid Bis Trifluoroacetate], the IC50 is < 0.1 µM.
Still for that read-out and setting: the same measure for `CC/C(=C\c1ccccc1)[C@@H]1C[C@H]1NC[C@H]1CC[C@H](NCc2ccc(C(=O)O)cc2)CC1` (racemic) [Compound 245, 4-((((trans)-4-((((trans)-2-((E)-1-phenylbut-1-en-2-yl)cyclopropyl)amino)methyl)cyclohexyl)amino)methyl)benzoic Acid Bis Trifluoroacetate]: < 0.1 µM; for `CC/C(=C\c1ccccc1)[C@@H]1C[C@H]1NC1CC2(C1)CN(Cc1ccc(C(=O)O)c(C)c1)C2` (single isomer, unassigned) [Compound 255]: < 0.1 µM; for `CC/C(=C\c1ccccc1)[C@@H]1C[C@H]1NC1CC2(C1)CN(Cc1ccc(C(=O)O)cc1)C2` (racemic) [Compound 226, 4-((6-(((trans)-2-((E)-1-phenylbut-en-2-yl)cyclopropyl)amino)-2-azaspiro[3.3]heptan-2-yl)methyl)benzoic acid bis trifluoroacetate]: < 0.1 µM.
The same measure, in the same setting: the value for `CC/C(=C\c1ccccc1)[C@@H]1C[C@H]1NC1CC2(C1)CN(Cc1ccc(C(=O)O)cc1C)C2` (single isomer, unassigned) [Compound 254] was < 0.1 µM; that for `CC/C(=C\c1ccccc1)[C@@H]1C[C@H]1NCC1(C)CN(Cc2ccc(C(=O)O)cc2)C1` (racemic) [Compound 235] was < 0.1 µM; that for `CC/C(=C\c1ccccc1)[C@@H]1C[C@H]1NCC1(C)CNC1` (racemic) [Compound 243] was < 0.1 µM.
On the same count and under the same terms, the value for `CC/C(=C\c1ccccc1)[C@@H]1C[C@H]1NC[C@H]1C[C@H](N)C1` (racemic) [Compound 239] was < 0.1 µM.

A word on the IC50: it is the concentration at which inhibition is half-maximal.

(Values after patent US10526287B2, “LSD1 inhibitors and uses thereof” (Constellation Pharmaceuticals, Inc., priority 2015, dated 2020).)
